Measured values: US11414424B2, “Cardiac sarcomere inhibitors” (Cytokinetics, Inc., priority 2018, dated 2022)

Test system: bovine cardiac myofibrils
Test: Myofibril assay: PK/LDH-coupled steady-state ATPase activity of skinned bovine cardiac myofibrils
Type: biochemical
Details: Ca2+ activating to 75% of maximal rate
How it was run: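 Steady-state ATPase of detergent-skinned bovine left-ventricular myofibrils (1 mg/mL), PK/LDH-coupled NADH read at 340 nm, in PIPES/MgCl2 buffer pH 6.8 with 50 μM ATP, 0.6 mM EGTA and CaCl2 set for 50% or 75% activation. Inhibition of activity measured.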

Structure (SMILES) | CDMF75 IC15 [nM]
CC(=O)N1CC2(C1)C(=O)N(c1ncc(Cl)cc1F)CC(=O)N2Cc1ccc(C(F)(F)F)cc1 [Compound 528, 2-acetyl-8-(5-chloro-3-fluoropyridin-2-yl)-5-(4-(trifluoromethyl)benzyl)-2,5,8-triazaspiro[3.5]nonane-6,9-dione] | 2900
CC(=O)N1CC2(C1)C(=O)N(c1ncc(C#N)cc1C)CC(=O)N2Cc1ccc(C(F)(F)F)cc1 [Compound 529, 6-(2-acetyl-6,9-dioxo-5-(4-(trifluoromethyl)benzyl)-2,5,8-triazaspiro[3.5]nonan-8-yl)-5-methylnicotinonitrile] | 5500
CC(=O)N1CC2(C1)C(=O)N(c1ncc(C#N)cc1F)CC(=O)N2Cc1ccc(C(F)(F)F)cc1 [Compound 530, 6-(2-acetyl-6,9-dioxo-5-(4-(trifluoromethyl)benzyl)-2,5,8-triazaspiro[3.5]nonan-8-yl)-5-fluoronicotinonitrile] | 4700
CNc1ccccc1C(=O)N1CC2(C1)C(=O)N(c1ccc(C#N)cc1F)CC(=O)N2Cc1ccc(C(F)(F)F)cc1 [Compound 531, 3-fluoro-4-(2-(2-(methylamino)benzoyl)-6,9-dioxo-5-(4-(trifluoromethyl)benzyl)-2,5,8-triazaspiro[3.5]nonan-8-yl)benzonitrile] | 5000
COC(=O)c1ccccc1N1CC2(C1)C(=O)N(c1ccc(C#N)cc1F)CC(=O)N2Cc1ccc(C(F)(F)F)cc1 [Compound 532, methyl 2-(8-(4-cyano-2-fluorophenyl)-6,9-dioxo-5-(4-(trifluoromethyl)benzyl)-2,5,8-triazaspiro[3.5]nonan-2-yl)benzoate] | 200
COC(=O)c1cccc(N2CC3(C2)C(=O)N(c2ccc(C#N)cc2F)CC(=O)N3Cc2ccc(C(F)(F)F)cc2)c1 [Compound 533, methyl 3-(8-(4-cyano-2-fluorophenyl)-6,9-dioxo-5-(4-(trifluoromethyl)benzyl)-2,5,8-triazaspiro[3.5]nonan-2-yl)benzoate] | 300
COC(=O)c1ccc(N2CC3(C2)C(=O)N(c2ccc(C#N)cc2F)CC(=O)N3Cc2ccc(C(F)(F)F)cc2)cc1 [Compound 534, methyl 4-(8-(4-cyano-2-fluorophenyl)-6,9-dioxo-5-(4-(trifluoromethyl)benzyl)-2,5,8-triazaspiro[3.5]nonan-2-yl)benzoate] | 200
CNc1ccccc1N1CC2(C1)C(=O)N(c1ccc(C#N)cc1F)CC(=O)N2Cc1ccc(C(F)(F)F)cc1 [Compound 535, 3-fluoro-4-(2-(2-(methyl-amino)phenyl)-6,9-dioxo-5-(4-(trifluoromethyl)-benzyl)-2,5,8-triazaspiro-[3.5]nonan-8-yl)benzonitrile] | 300
CNc1cccc(N2CC3(C2)C(=O)N(c2ccc(C#N)cc2F)CC(=O)N3Cc2ccc(C(F)(F)F)cc2)c1 [Compound 536, 3-fluoro-4-[2-[3-(methylamino)phenyl]-6,9-dioxo-5-[[4-(trifluoromethyl)phenyl]methyl]-2,5,8-triazaspiro[3.5]nonan-8-yl]benzonitrile] | 200
CNC(=O)c1ccccc1N1CC2(C1)C(=O)N(c1ccc(C#N)cc1F)CC(=O)N2Cc1ccc(C(F)(F)F)cc1 [Compound 537, 2-(8-(4-cyano-2-fluorophenyl)-6,9-dioxo-5-(4-(trifluoromethyl)benzyl)-2,5,8-triazaspiro[3.5]nonan-2-yl)-N-methylbenzamide] | 300
CNc1ccc(N2CC3(C2)C(=O)N(c2ccc(C#N)cc2F)CC(=O)N3Cc2ccc(C(F)(F)F)cc2)cc1 [Compound 538, 3-fluoro-4-(2-(4-(methylamino)phenyl)-6,9-dioxo-5-(4-(trifluoromethyl)benzyl)-2,5,8-triazaspiro[3.5]nonan-8-yl)benzonitrile] | 200
CNC(=O)c1cccc(N2CC3(C2)C(=O)N(c2ccc(C#N)cc2F)CC(=O)N3Cc2ccc(C(F)(F)F)cc2)c1 [Compound 539, 3-(8-(4-cyano-2-fluorophenyl)-6,9-dioxo-5-(4-(trifluoromethyl)benzyl)-2,5,8-triazaspiro[3.5]nonan-2-yl)-N-methylbenzamide] | 200
CNC(=O)c1ccc(N2CC3(C2)C(=O)N(c2ccc(C#N)cc2F)CC(=O)N3Cc2ccc(C(F)(F)F)cc2)cc1 [Compound 540, 4-(8-(4-cyano-2-fluorophenyl)-6,9-dioxo-5-(4-(trifluoromethyl)benzyl)-2,5,8-triazaspiro[3.5]nonan-2-yl)-N-methylbenzamide] | 200
CNc1cc(N2CC3(C2)C(=O)N(c2ccc(C#N)cc2F)CC(=O)N3Cc2ccc(C(F)(F)F)cc2)ccc1C(=O)OC [Compound 541, methyl 4-(8-(4-cyano-2-fluorophenyl)-6,9-dioxo-5-(4-(trifluoromethyl)benzyl)-2,5,8-triazaspiro[3.5]nonan-2-yl)-2-(methylamino)benzoate] | 200
CNC(=O)c1ccc(N2CC3(C2)C(=O)N(c2ccc(C#N)cc2F)CC(=O)N3Cc2ccc(C(F)(F)F)cc2)cc1NC [Compound 542, 4-(8-(4-cyano-2-fluoro-phenyl)-6,9-dioxo-5-(4-(trifluoromethyl)benzyl)-2,5,8-triazaspiro[3.5]nonan-2-yl)-N-methyl-2-(methylamino)benzamide] | 200
CNc1ccc(N2CC3(C2)C(=O)N(c2ccc(C#N)cc2F)CC(=O)N3Cc2ccc(C(F)(F)F)cc2)cc1C(=O)OC [Compound 543, methyl 5-(8-(4-cyano-2-fluorophenyl)-6,9-dioxo-5-(4-(trifluoromethyl)benzyl)-2,5,8-triazaspiro[3.5]nonan-2-yl)-2-(methylamino)-benzoate] | 300
CNc1cccc(N2CC3(C2)C(=O)N(c2ccc(C#N)cc2F)CC(=O)N3Cc2ccc(C(F)(F)F)cc2)c1C(=O)OC [Compound 544, methyl 2-(8-(4-cyano-2-fluorophenyl)-6,9-dioxo-5-(4-(trifluoromethyl)benzyl)-2,5,8-triazaspiro[3.5]nonan-2-yl)-6-(methylamino)-benzoate] | 300
CNC(=O)c1cc(N2CC3(C2)C(=O)N(c2ccc(C#N)cc2F)CC(=O)N3Cc2ccc(C(F)(F)F)cc2)ccc1NC [Compound 545, 5-(8-(4-cyano-2-fluorophenyl)-6,9-dioxo-5-(4-(trifluoromethyl)benzyl)-2,5,8-triazaspiro[3.5]nonan-2-yl)-N-methyl-2-(methylamino)benzamide] | 200
CNc1c(C(=O)OC)cccc1N1CC2(C1)C(=O)N(c1ccc(C#N)cc1F)CC(=O)N2Cc1ccc(C(F)(F)F)cc1 [Compound 546, methyl 3-(8-(4-cyano-2-fluorophenyl)-6,9-dioxo-5-(4-(trifluoromethyl)benzyl)-2,5,8-triazaspiro[3.5]nonan-2-yl)-2-(methylamino)-benzoate] | 1000
CNC(=O)c1cccc(N2CC3(C2)C(=O)N(c2ccc(C#N)cc2F)CC(=O)N3Cc2ccc(C(F)(F)F)cc2)c1NC [Compound 547, 3-(8-(4-cyano-2-fluorophenyl)-6,9-dioxo-5-(4-(trifluoromethyl)benzyl)-2,5,8-triazaspiro[3.5]nonan-2-yl)-N-methyl-2-(methylamino)benzamide] | 400
O=C1CN(c2ncc(Cl)cc2F)C(=O)C2(CCC2)N1Cc1ccc(C(F)(F)F)cc1 [Compound 548, 8-(5-chloro-3-fluoropyridin-2-yl)-5-(4-(trifluoromethyl)-benzyl)-5,8-diazaspiro-[3.5]nonane-6,9-dione] | 600
